In patent US6737383B1, “Herbicidal oxadiazolidines” (priority 1999, dated 2004):

What was measured:
bedstraw = test: Test B pre/postemergence bedstraw; format: in vivo, Galium aparine
Method in brief: (§1)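 Herbicidal effect was estimated by eye on a ten-point control scale after plants spent twelve to sixteen days in a greenhouse following soil or foliar treatment. Foliar sprays targeted plants at one to four leaves; all doses were formulated in a non-phytotoxic solvent with surfactant.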

blackgrass = test: Test B pre/postemergence blackgrass; format: in vivo, Alopecurus myosuroides
Method in brief: as §1

surinam grass = test: Test B pre/postemergence surinam grass; format: in vivo, Brachiaria decumbens
Method in brief: as §1

cocklebur = test: Test B pre/postemergence cocklebur; format: in vivo, Xanthium strumarium
Method in brief: as §1

corn = test: Test B pre/postemergence corn; format: in vivo, Zea mays
Method in brief: as §1

crabgrass = test: Test B pre/postemergence crabgrass; format: in vivo, Digitaria sanguinalis
Method in brief: as §1

pigweed = test: Test B pre/postemergence pigweed; format: in vivo, Amaranthus retroflexus
Method in brief: as §1

rape = test: Test B pre/postemergence rape; format: in vivo, Brassica napus
Method in brief: as §1

soybean = test: Test B pre/postemergence soybean; format: in vivo, Glycine max
Method in brief: as §1

sugar beet = test: Test B pre/postemergence sugar beet; format: in vivo, Beta vulgaris
Method in brief: as §1

velvetleaf = test: Test B pre/postemergence velvetleaf; format: in vivo, Abutilon theophrasti
Method in brief: as §1

wheat = test: Test B pre/postemergence wheat; format: in vivo, Triticum aestivum
Method in brief: as §1

wild oat = test: Test B pre/postemergence wild oat; format: in vivo, Avena fatua
Method in brief: as §1

purple nutsedge = test: Test B pre/postemergence purple nutsedge; format: in vivo, Cyperus rotundus
Method in brief: as §1

smallflower flatsedge = test: Test B flood test smallflower flatsedge; format: in vivo, Cyperus difformis
Method in brief: (§2)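 Each value is a visual injury score relative to controls, with 10 meaning complete control and 0 no effect. Evaluation took place twelve to sixteen days after the 2-leaf-stage plants were treated and kept in the greenhouse.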

bamyardgrass = test: Test B flood test barnyardgrass; format: in vivo, Echinochloa crus-galli
Method in brief: as §2

[1] = Preemergence, Rate 62 g/ha, scale of 0 to 10 where 0 is no effect and 10 is complete control
[2] = Preemergence, Rate 125 g/ha, 0 is no effect, 10 is complete control
[3] = Preemergence, Rate 250 g/ha, scale 0 to 10, 0 is no effect, 10 is complete control
[4] = Preemergence, Rate 500 g/ha, scale of 0 to 10 where 0 is no effect and 10 is complete control
[5] = Rate 62 g/ha, Postemergence, scale of 0 to 10 where 0 is no effect and 10 is complete control
[6] = Rate 125 g/ha, Postemergence, scale 0 to 10
[7] = Rate 500 g/ha, Postemergence, scale 0 to 10
[8] = Rate 62 g/ha, headed Pre-emergence (flood test species), scale 0 to 10 (0 no effect, 10 complete control)
[9] = Rate 125 g/ha, Pre-emergence, flood test species, scale 0 to 10 where 0 is no effect and 10 is complete control
[10] = Rate 250 g/ha, Pre-emergence, flood-test species, scale 0 to 10, 0 is no effect, 10 is complete control

Cc1ccccc1-n1c(=O)on(C(=O)N(c2ccccc2F)C(C)C)c1=O [Compound 204]
1: Plant response rating (0 to 10; 0 is no effect, 10 is complete control), Cocklebur (cocklebur; Rate 250 g/ha, Postemergence) | Cocklebur plant response rating (cocklebur; [7]) | Soybean plant response rating (soybean; [5]) | Soybean plant response rating (soybean; [6]) | Plant response rating (0 to 10; 0 is no effect, 10 is complete control), Soybean (soybean; Rate 250 g/ha, Postemergence) | Velvetleaf plant response rating (velvetleaf; [6]) | Plant response rating (0 to 10; 0 is no effect, 10 is complete control), Velvetleaf (velvetleaf; Rate 250 g/ha, Postemergence)
3: Plant response rating (0 to 10; 0 is no effect, 10 is complete control), Blackgrass (blackgrass; Rate 250 g/ha, Postemergence) | Plant response rating, Rape (rape; [4]) | Wild oats plant response rating (wild oat; [3])
4: Plant response rating (0 to 10; 0 is no effect, 10 is complete control), Redroot pigweed (pigweed; Rate 250 g/ha, Postemergence)
0: Bedstraw plant response rating (bedstraw; [1]) | Bedstraw plant response rating (0 to 10 scale) (bedstraw; [2]) | Bedstraw plant response rating (bedstraw; [3]) | Plant response rating, Bedstraw (bedstraw; [4]) | Bedstraw plant response rating (bedstraw; [5]) | Bedstraw plant response rating (bedstraw; [6]) | Blackgrass plant response rating (blackgrass; [1]) | Blackgrass plant response rating (blackgrass; [5]) | B. signalgrass plant response rating (surinam grass; [1]) | B. signalgrass plant response rating (0 to 10 scale) (surinam grass; [2]) | B. signalgrass plant response rating (surinam grass; [3]) | B. signalgrass plant response rating (surinam grass; [5]) | B. signalgrass plant response rating (surinam grass; Rate 125 g/ha, Postemergence, scale 0 (no effect) to 10 (complete control)) | Plant response rating, B. signalgrass (surinam grass; Rate 250 g/ha, Postemergence, scale 0 to 10, 0 is no effect, 10 is complete control) | B. signalgrass plant response rating (surinam grass; Rate 500 g/ha, Postemergence, scale 0 to 10, 0 no effect, 10 complete control) | Cocklebur plant response rating (cocklebur; [1]) | Cocklebur plant response rating (0 to 10 scale) (cocklebur; [2]) | Cocklebur plant response rating (cocklebur; [3]) | Plant response rating, Cocklebur (cocklebur; [4]) | Cocklebur plant response rating (cocklebur; [5]) | Cocklebur plant response rating (cocklebur; [6]) | Corn plant response rating (corn; [1]) | Corn plant response rating (0 to 10 scale) (corn; [2]) | Corn plant response rating (corn; [3]) | Corn plant response rating (corn; [5]) | Corn plant response rating (corn; [6]) | Plant response rating (0 to 10; 0 is no effect, 10 is complete control), Corn (corn; Rate 250 g/ha, Postemergence) | Corn plant response rating (corn; [7]) | Crabgrass plant response rating (crabgrass; [5]) | Crabgrass plant response rating (crabgrass; [6]) | Redroot pigweed plant response rating (pigweed; [1]) | Redroot pigweed plant response rating (0 to 10 scale) (pigweed; [2]) | Redroot pigweed plant response rating (pigweed; [3]) | Plant response rating, Redroot pigweed (pigweed; [4]) | Redroot pigweed plant response rating (pigweed; [5]) | Redroot pigweed plant response rating (pigweed; [6]) | Rape plant response rating (rape; [1]) | Rape plant response rating (0 to 10 scale) (rape; [2]) | Rape plant response rating (rape; [3]) | Rape plant response rating (rape; [5]) | Rape plant response rating (rape; [6]) | Plant response rating (0 to 10; 0 is no effect, 10 is complete control), Rape (rape; Rate 250 g/ha, Postemergence) | Rape plant response rating (rape; [7]) | Soybean plant response rating (soybean; [1]) | Soybean plant response rating (0 to 10 scale) (soybean; [2]) | Soybean plant response rating (soybean; [3]) | Plant response rating, Soybean (soybean; [4]) | Sugarbeets plant response rating (sugar beet; [1]) | Sugarbeets plant response rating (0 to 10 scale) (sugar beet; [2]) | Sugarbeets plant response rating (sugar beet; [3]) | Plant response rating, Sugarbeets (sugar beet; [4]) | Sugarbeets plant response rating (sugar beet; [5]) | Sugarbeets plant response rating (sugar beet; [6]) | Plant response rating (0 to 10; 0 is no effect, 10 is complete control), Sugarbeets (sugar beet; Rate 250 g/ha, Postemergence) | Sugarbeets plant response rating (sugar beet; [7]) | Velvetleaf plant response rating (velvetleaf; [1]) | Velvetleaf plant response rating (velvetleaf; [3]) | Plant response rating, Velvetleaf (velvetleaf; [4]) | Velvetleaf plant response rating (velvetleaf; [5]) | Wheat plant response rating (wheat; [1]) | Wheat plant response rating (wheat; [3]) | Wheat plant response rating (wheat; [5]) | Wheat plant response rating (wheat; [6]) | Plant response rating (0 to 10; 0 is no effect, 10 is complete control), Wheat (wheat; Rate 250 g/ha, Postemergence) | Wild oats plant response rating (wild oat; [1]) | Wild oats plant response rating (wild oat; [5]) | Wild oats plant response rating (wild oat; [6]) | Plant response rating (0 to 10; 0 is no effect, 10 is complete control), Wild oats (wild oat; Rate 250 g/ha, Postemergence) | Nutsedge plant response rating (purple nutsedge; [1]) | Nutsedge plant response rating (0 to 10 scale) (purple nutsedge; [2]) | Nutsedge plant response rating (purple nutsedge; [3]) | Plant response rating, Nutsedge (purple nutsedge; [4]) | Nutsedge plant response rating (purple nutsedge; [5]) | Nutsedge plant response rating (purple nutsedge; [6]) | Plant response rating (0 to 10; 0 is no effect, 10 is complete control), Nutsedge (purple nutsedge; Rate 250 g/ha, Postemergence) | Nutsedge plant response rating (purple nutsedge; [7]) | S. Flatsedge plant response rating (smallflower flatsedge; [8]) | S. Flatsedge plant response rating (smallflower flatsedge; [9]) | S. Flatsedge plant response rating (smallflower flatsedge; [10]) | S. Flatsedge plant response rating (smallflower flatsedge; Rate 500 g/ha, Pre-emergence, flood test species, scale 0 to 10 (0 no effect, 10 complete control)) | Barnyardgrass plant response rating (bamyardgrass; [8]) | Barnyardgrass plant response rating (bamyardgrass; [9]) | Barnyardgrass plant response rating (bamyardgrass; [10]) | Plant response rating, Barnyardgrass (bamyardgrass; Rate 500 g/ha, headed Pre-emergence (flood test species), scale 0 to 10 (0 no effect, 10 complete control))
5: Plant response rating, Blackgrass (blackgrass; [4]) | Crabgrass plant response rating (crabgrass; [7])
6: Plant response rating (0 to 10; 0 is no effect, 10 is complete control), Bedstraw (bedstraw; Rate 250 g/ha, Postemergence) | Crabgrass plant response rating (crabgrass; [1]) | Plant response rating, Wild oats (wild oat; [4])
7: Bedstraw plant response rating (bedstraw; [7]) | Blackgrass plant response rating (blackgrass; [7]) | Redroot pigweed plant response rating (pigweed; [7]) | Soybean plant response rating (soybean; [7])
2: Blackgrass plant response rating (0 to 10 scale) (blackgrass; [2]) | Blackgrass plant response rating (blackgrass; [3]) | Blackgrass plant response rating (blackgrass; [6]) | Plant response rating, B. signalgrass (surinam grass; [4]) | Plant response rating, Corn (corn; [4]) | Plant response rating (0 to 10; 0 is no effect, 10 is complete control), Crabgrass (crabgrass; Rate 250 g/ha, Postemergence) | Plant response rating, Wheat (wheat; [4])
8: Crabgrass plant response rating (0 to 10 scale) (crabgrass; [2]) | Crabgrass plant response rating (crabgrass; [3]) | Plant response rating, Crabgrass (crabgrass; [4])
